From the NIST ThermoML archive (doi:10.1016/j.jct.2010.09.003)
± gives the expanded uncertainty stated by the source.

Experiments:
[1] = Ring tensiometer
[2] = xn = mol fraction of the nth substance listed; settings: Ring tensiometer

OCCO [1,2-ethanediol]
[1]
Settings | surface tension liquid-gas [mN/m]
283.15 K | 49.27 ± 0.66
298.15 K | 48.22 ± 0.65
308.15 K | 47.29 ± 0.64

OCCO [1,2-ethanediol] + CC#N
[2]
Settings | surface tension liquid-gas [mN/m]
283.15 K, x2 = 0.0102 | 47.92 ± 0.65
283.15 K, x2 = 0.0202 | 46.5 ± 0.63
283.15 K, x2 = 0.0349 | 44.85 ± 0.61
283.15 K, x2 = 0.0488 | 41.85 ± 0.57
283.15 K, x2 = 0.0611 | 41.1 ± 0.57
283.15 K, x2 = 0.0851 | 39 ± 0.54
283.15 K, x2 = 0.0936 | 38.18 ± 0.54
283.15 K, x2 = 0.102 | 36.99 ± 0.52
283.15 K, x2 = 0.1141 | 36.8 ± 0.52
283.15 K, x2 = 0.126 | 35.72 ± 0.51
283.15 K, x2 = 0.1413 | 34 ± 0.49
283.15 K, x2 = 0.1561 | 33.22 ± 0.48
283.15 K, x2 = 0.1765 | 32.67 ± 0.47
283.15 K, x2 = 0.1902 | 32.45 ± 0.47
283.15 K, x2 = 0.2426 | 32.01 ± 0.46
283.15 K, x2 = 0.29 | 31.75 ± 0.45
283.15 K, x2 = 0.3379 | 31.68 ± 0.45
283.15 K, x2 = 0.3895 | 31.49 ± 0.45
283.15 K, x2 = 0.4202 | 31.44 ± 0.45
283.15 K, x2 = 0.5197 | 31.05 ± 0.44
283.15 K, x2 = 0.7564 | 30.55 ± 0.43
283.15 K, x2 = 0.9008 | 30.01 ± 0.43
298.15 K, x2 = 0.0109 | 47.82 ± 0.64
298.15 K, x2 = 0.0199 | 47.46 ± 0.64
298.15 K, x2 = 0.0361 | 46.85 ± 0.63
298.15 K, x2 = 0.072 | 45.45 ± 0.62
298.15 K, x2 = 0.0845 | 44.97 ± 0.61
298.15 K, x2 = 0.1012 | 44.23 ± 0.6
298.15 K, x2 = 0.1402 | 42.7 ± 0.6
298.15 K, x2 = 0.1599 | 40.49 ± 0.56
298.15 K, x2 = 0.1992 | 40.13 ± 0.55
298.15 K, x2 = 0.2569 | 37.76 ± 0.52
298.15 K, x2 = 0.2999 | 36.35 ± 0.51
298.15 K, x2 = 0.35 | 34.9 ± 0.5
298.15 K, x2 = 0.4345 | 33 ± 1
298.15 K, x2 = 0.4888 | 32.25 ± 0.45
298.15 K, x2 = 0.5699 | 31.53 ± 0.45
298.15 K, x2 = 0.6321 | 31.01 ± 0.44
298.15 K, x2 = 0.7099 | 30.49 ± 0.43
298.15 K, x2 = 0.7765 | 30.17 ± 0.43
298.15 K, x2 = 0.8499 | 29.71 ± 0.42
308.15 K, x2 = 0.0202 | 46.45 ± 0.63
308.15 K, x2 = 0.0349 | 45.63 ± 0.62
308.15 K, x2 = 0.0674 | 43.75 ± 0.6
308.15 K, x2 = 0.0851 | 42.8 ± 0.59
308.15 K, x2 = 0.1021 | 41.75 ± 0.57
308.15 K, x2 = 0.1568 | 39.26 ± 0.54
308.15 K, x2 = 0.1852 | 37.85 ± 0.53
308.15 K, x2 = 0.1987 | 37.18 ± 0.52
308.15 K, x2 = 0.2426 | 35.5 ± 0.5
308.15 K, x2 = 0.2976 | 34.05 ± 0.48
308.15 K, x2 = 0.4144 | 31.64 ± 0.45
308.15 K, x2 = 0.4734 | 30.85 ± 0.44
308.15 K, x2 = 0.5101 | 30.41 ± 0.43
308.15 K, x2 = 0.6453 | 28.95 ± 0.42
308.15 K, x2 = 0.7654 | 28.53 ± 0.41
308.15 K, x2 = 0.9352 | 27.83 ± 0.4

OCCO [1,2-ethanediol] + O
[2]
Settings | surface tension liquid-gas [mN/m]
283.15 K, x1 = 0.0078 | 73.5 ± 0.93
283.15 K, x1 = 0.0132 | 72.59 ± 0.92
283.15 K, x1 = 0.0216 | 71.19 ± 0.91
283.15 K, x1 = 0.0334 | 69.9 ± 0.89
283.15 K, x1 = 0.0498 | 68.63 ± 0.88
283.15 K, x1 = 0.0632 | 67.15 ± 0.86
283.15 K, x1 = 0.0875 | 64.99 ± 0.83
283.15 K, x1 = 0.1152 | 63.9 ± 0.82
283.15 K, x1 = 0.1436 | 62.16 ± 0.8
283.15 K, x1 = 0.1635 | 60.8 ± 0.79
283.15 K, x1 = 0.2002 | 59.26 ± 0.77
283.15 K, x1 = 0.2509 | 57.72 ± 0.75
283.15 K, x1 = 0.2895 | 56.46 ± 0.74
283.15 K, x1 = 0.4112 | 54.53 ± 0.71
283.15 K, x1 = 0.4753 | 53.16 ± 0.7
283.15 K, x1 = 0.6668 | 51.62 ± 0.68
283.15 K, x1 = 0.7562 | 50.82 ± 0.68
283.15 K, x1 = 0.8958 | 49.84 ± 0.67
298.15 K, x1 = 0.0083 | 71.18 ± 0.91
298.15 K, x1 = 0.0144 | 70.41 ± 0.9
298.15 K, x1 = 0.0246 | 69.25 ± 0.88
298.15 K, x1 = 0.0351 | 68.12 ± 0.87
298.15 K, x1 = 0.0466 | 66.95 ± 0.86
298.15 K, x1 = 0.0556 | 66.14 ± 0.85
298.15 K, x1 = 0.0899 | 63.74 ± 0.82
298.15 K, x1 = 0.1042 | 62.68 ± 0.81
298.15 K, x1 = 0.1342 | 61.16 ± 0.79
298.15 K, x1 = 0.1624 | 59.99 ± 0.78
298.15 K, x1 = 0.1989 | 58.5 ± 0.8
298.15 K, x1 = 0.2499 | 56.89 ± 0.74
298.15 K, x1 = 0.2996 | 55.65 ± 0.73
298.15 K, x1 = 0.401 | 53.63 ± 0.7
298.15 K, x1 = 0.4999 | 52.22 ± 0.69
298.15 K, x1 = 0.65 | 50.65 ± 0.67
298.15 K, x1 = 0.75 | 49.82 ± 0.66
298.15 K, x1 = 0.8987 | 48.68 ± 0.65
308.15 K, x1 = 0.008 | 69.14 ± 0.88
308.15 K, x1 = 0.0141 | 68.26 ± 0.87
308.15 K, x1 = 0.0253 | 66.81 ± 0.86
308.15 K, x1 = 0.0353 | 65.67 ± 0.84
308.15 K, x1 = 0.0511 | 64.1 ± 0.82
308.15 K, x1 = 0.0556 | 63.7 ± 0.82
308.15 K, x1 = 0.0905 | 61.09 ± 0.79
308.15 K, x1 = 0.1113 | 59.86 ± 0.78
308.15 K, x1 = 0.1445 | 58.26 ± 0.76
308.15 K, x1 = 0.1602 | 57.62 ± 0.75
308.15 K, x1 = 0.2132 | 55.84 ± 0.73
308.15 K, x1 = 0.2485 | 54.9 ± 0.72
308.15 K, x1 = 0.3201 | 53.39 ± 0.7
308.15 K, x1 = 0.4126 | 51.95 ± 0.69
308.15 K, x1 = 0.5054 | 50.84 ± 0.67
308.15 K, x1 = 0.6501 | 49.52 ± 0.66
308.15 K, x1 = 0.7406 | 48.84 ± 0.65
308.15 K, x1 = 0.8875 | 47.91 ± 0.64

CC#N [acetonitrile]
[1]
Settings | surface tension liquid-gas [mN/m]
283.15 K | 29.73 ± 0.42
298.15 K | 28.2 ± 0.41
308.15 K | 27.47 ± 0.4

CC#N [acetonitrile] + O
[2]
Settings | surface tension liquid-gas [mN/m]
283.15 K, x1 = 0.0051 | 70.6 ± 0.91
283.15 K, x1 = 0.0101 | 67.18 ± 0.87
283.15 K, x1 = 0.0151 | 64.36 ± 0.83
283.15 K, x1 = 0.0217 | 61.23 ± 0.8
283.15 K, x1 = 0.0298 | 57.99 ± 0.76
283.15 K, x1 = 0.0377 | 55.36 ± 0.73
283.15 K, x1 = 0.0486 | 52.34 ± 0.69
283.15 K, x1 = 0.0593 | 49.47 ± 0.66
283.15 K, x1 = 0.0871 | 44.54 ± 0.6
283.15 K, x1 = 0.1011 | 42.3 ± 0.57
283.15 K, x1 = 0.1431 | 38.03 ± 0.52
283.15 K, x1 = 0.1615 | 35.51 ± 0.49
283.15 K, x1 = 0.1847 | 34.35 ± 0.48
283.15 K, x1 = 0.2068 | 33.9 ± 0.47
283.15 K, x1 = 0.2327 | 33.51 ± 0.47
283.15 K, x1 = 0.3098 | 32.89 ± 0.46
283.15 K, x1 = 0.3971 | 32.56 ± 0.46
283.15 K, x1 = 0.4878 | 32.29 ± 0.45
283.15 K, x1 = 0.6557 | 32.06 ± 0.45
283.15 K, x1 = 0.8056 | 31.26 ± 0.44
283.15 K, x1 = 0.9592 | 29.83 ± 0.43
298.15 K, x1 = 0.0149 | 62.36 ± 0.81
298.15 K, x1 = 0.0298 | 55.92 ± 0.73
298.15 K, x1 = 0.0516 | 49.39 ± 0.66
298.15 K, x1 = 0.0653 | 45.96 ± 0.61
298.15 K, x1 = 0.086 | 42.2 ± 0.57
298.15 K, x1 = 0.095 | 40.54 ± 0.55
298.15 K, x1 = 0.1023 | 39.63 ± 0.54
298.15 K, x1 = 0.1227 | 37.97 ± 0.52
298.15 K, x1 = 0.1403 | 36.42 ± 0.5
298.15 K, x1 = 0.157 | 35.68 ± 0.49
298.15 K, x1 = 0.1855 | 33.97 ± 0.47
298.15 K, x1 = 0.195 | 34.11 ± 0.48
298.15 K, x1 = 0.2541 | 32.92 ± 0.46
298.15 K, x1 = 0.3256 | 32.34 ± 0.45
298.15 K, x1 = 0.3959 | 31.68 ± 0.45
298.15 K, x1 = 0.4851 | 31.45 ± 0.44
298.15 K, x1 = 0.5913 | 30.95 ± 0.44
298.15 K, x1 = 0.693 | 30.37 ± 0.43
298.15 K, x1 = 0.7968 | 29.46 ± 0.42
308.15 K, x1 = 0.0217 | 60.53 ± 0.78
308.15 K, x1 = 0.0298 | 59 ± 0.77
308.15 K, x1 = 0.0377 | 55.56 ± 0.73
308.15 K, x1 = 0.0727 | 48.05 ± 0.64
308.15 K, x1 = 0.0871 | 45.83 ± 0.62
308.15 K, x1 = 0.1304 | 40.09 ± 0.55
308.15 K, x1 = 0.1431 | 38.79 ± 0.53
308.15 K, x1 = 0.1615 | 36.94 ± 0.51
308.15 K, x1 = 0.1847 | 35.7 ± 0.49
308.15 K, x1 = 0.2068 | 33.9 ± 0.47
308.15 K, x1 = 0.2327 | 33.51 ± 0.47
308.15 K, x1 = 0.3098 | 31.04 ± 0.44
308.15 K, x1 = 0.3971 | 30.05 ± 0.43
308.15 K, x1 = 0.4999 | 29.11 ± 0.42
308.15 K, x1 = 0.6557 | 28.41 ± 0.41
308.15 K, x1 = 0.7775 | 28.21 ± 0.41
308.15 K, x1 = 0.9592 | 28.05 ± 0.4

O [water]
[1]
Settings | surface tension liquid-gas [mN/m]
283.15 K | 74.47 ± 0.94
298.15 K | 72.06 ± 0.92
308.15 K | 70.41 ± 0.9
